Results on five molecules are retold here after US9266897B2, “Derivatives of protoberberine biological alkaloids and use of same inhibiting ulcerative colitis” (Institute of Materia Medica, Chinese Academy of Medical …, priority 2011, dated 2016).

Entries after “also recorded” stand apart in the source; their conditions may differ. Marks after values point to notes of the source that are not given here.

One assay concerns xbp1 upstream promoter. Briefly: Transcriptional activation of pGL3-pxbp1 (dual luciferase reporter gene) in IEC-6 cells. It is filed as cell-based. Conditions: Rattus norvegicus, IEC-6 cells transfected with pGL3-pxbp1, 36 h-48 h, read-out: EC50 of transcriptional activation effect on xbp1 gene. How it is done: (§1) (1) Method: IEC-6 cells in the period of vigorous growth were seed in 48 well plate at a density of 5×10^4 to disperse the cells uniform and then it was placed in a humidifying cell incubator filled with 5% CO2 at 37° C. to incubate. Plasmid transfection (0.6 μg/well) was carried out when the cells confluencing up to 70%-80%. After 4 h, each compound of 1×10^−5 mol/L was added into these wells (n=3), respectively, and incubated for another 36 h-48 h together with existing transfected cells. Luciferase activity detection on test samples was proceeded using dual luciferase report gene detection kit (Promega, USA).
as §1, with “logarithmic phase” for “vigorous growth”, “different concentrations” for “each compound”, “compounds 1, 2, 7, and 10 were” for “1×10^−5 mol/L was”, “added” for “added into these wells”

For assay [1], the system named is SD rats with acetic acid-induced UC. Nature of the assay: Acetic acid-induced acute UC in SD rats. It is filed as in vivo. How it is done: (§2) (1) Method: In vivo test was carried out according to the literature: Y. Yoshioka, H. Akiyama, M. Nakano, T. Shoji, T. Kanda, Y. Ohtake, T. Takita, R. Matsuda, T. Maitani. Orally administered apple procyanidins protect against experimental inflammatory bowel disease in mice, international immunopharmacology, 2008, 1802-1807.
Disease activity index (DAI) is evaluated by weight loss, shape of stool, hematochezia, and other indicators; macroscopic score of colon tissue is evaluated by intestinal mucosal hyperemia, edema of intestinal wall, ulcer size, and other indicators. The lower the DAI and macroscopic score is, the more close to the normal physiological state. In Table 1: **p<0.01 when compared with the normal control group; ##p<0.01 when compared with the model group.

The subject of assay [2] is C57/blc mice with DSS-induced UC. Briefly: DSS-induced acute UC in C57/blc mice. It is filed as in vivo. Conditions: for colon histopathology (inflammatory lesion): HE×200. How it is done: as §2
DAI is evaluated by weight loss, shape of stool, hematochezia, and other indicators; macroscopic score of colon tissue is evaluated by intestinal mucosal hyperemia, edema of intestinal wall, ulcer size, and other indicators. The lower the DAI and macroscopic score is, the more close to the physiological state of the normal animal. In Table 3: **p<0.01 when compared with the normal control group; ##p<0.01 when compared with the model group.

Setting [3] is: Table 5, 300 mg/kg, model 3.39 ± 0.64.
The mark [4] stands for this setting: Table 5, 300 mg/kg, model 5.69 ± 1.12.
Where [5] appears, read: Table 7, 300 mg/kg, model 3.85 ± 0.34.
[6] abbreviates: Table 7, 300 mg/kg, model 5.59 ± 1.01.

As usually defined, the EC50 is the concentration at which the effect is half-maximal.

`CC(=O)CC1c2c(ccc3c2OCO3)C=C2c3cc4c(cc3CCN21)OCO4` (racemic) [Compound 7, (±)-8-acetonyldihydrocoptisine]: in the assay on xbp1 upstream promoter, the EC50 was 221 nM. For the same molecule, the “macroscopic and histopathological results of colon tissue” value in assay [1] (300 mg/kg) is on record as “good therapeutic effect on UC”. In assay [1] (300 mg/kg, model group decreased by 19.2%), the “body weight change value compared with before administration (decreased by)” value was 10%. Also, the macroscopic score in assay [1] (Table 1, 300 mg/kg) is recorded as 2.05 ± 0.45##. The DAI in assay [1] (Table 1, 300 mg/kg, model 3.15 ± 0.45) is 1.15 ± 0.22##; in assay [2] (Table 3, HD 500 mg/kg, model 3.33 ± 0.54), 1.33 ± 0.31##; in assay [2] (Table 3, LD 125 mg/kg, model 3.33 ± 0.54) it was 3.01 ± 0.38; in assay [2] (Table 3, MD 250 mg/kg, model 3.33 ± 0.54), 2.01 ± 0.27##. Besides, the “disease activity index (DAI) inhibitory rate in UC model” value in assay [2] (500 mg/kg) is 64%. Further, the entries for the “colon histopathology (inflammatory lesion)” value in assay [2] (HD group 500 mg/kg), in assay [2] (LD group 125 mg/kg) and in assay [2] (MD group 250 mg/kg) were “significant improvement on the colon inflammatory lesion; also recorded: the lesion of inflammatory bowel diseases is more significantly improved”, “the inflammatory lesions of colon tissue also has a partial remission” and “the inflammatory lesions of colon tissue also has a partial remission”, respectively. Also, the “Body weight (g) x ± SD end” value turned out to be 21.57 ± 1.5 g in assay [2] (Table 2, HD 500 mg/kg) and 20.54 ± 2.1 g in assay [2] (Table 2, MD 250 mg/kg). Further, the “macroscopic score of colon tissue” value in assay [2] (Table 3, HD 500 mg/kg, model 5.54 ± 1.23) was 2.05 ± 0.28##; in assay [2] (Table 3, LD 125 mg/kg, model 5.54 ± 1.23) it was 4.93 ± 0.61; in assay [2] (Table 3, MD 250 mg/kg, model 5.54 ± 1.23), 3.30 ± 0.66##.
Regarding `O=C(O)c1cc(/N=N/c2ccc(S(=O)(=O)Nc3ccccn3)cc2)ccc1O` [SASP, reference compound], the “disease activity index (DAI) inhibitory rate in UC model” value in assay [2] (300 mg/kg) was 32%. The “Body weight (g) x ± SD end” value in assay [2] (Table 2, 300 mg/kg) stood at 20.09 ± 0.9 g; in assay [2] (Table 4, 300 mg/kg), 21.15 ± 0.6 g; in assay [2] (Table 6, 300 mg/kg), 25.09 ± 0.9 g. Moreover, the DAI is recorded as 2.27 ± 0.43## in assay [2] (Table 3, 300 mg/kg, model 3.33 ± 0.54); 2.54 ± 0.23## in assay [2] (setting [3]); 2.27 ± 0.43## in assay [2] (setting [5]). The “macroscopic score of colon tissue” value in assay [2] (Table 3, 300 mg/kg, model 5.54 ± 1.23) is 3.24 ± 0.77##; in assay [2] (setting [4]), 2.95 ± 0.52##; in assay [2] (setting [6]), 3.24 ± 0.77##. For the same molecule, the “colon histopathology (inflammatory lesion)” value in assay [2] (positive drug SASP group) was “improvement of visible colitis lesions and partial recovery of structure of each layer”.
Take `C1=C2c3cc4c(cc3CCN2Cc2c1ccc1c2OCO1)OCO4` [Compound 1, dihydrocoptisine]: the concentration giving a half-maximal response (EC50) in the assay on xbp1 upstream promoter amounted to 2.29 nM. In addition, the “disease activity index (DAI) inhibitory rate in UC model” value in assay [2] (300 mg/kg) was found to be 69%. Besides, the “Body weight (g) x ± SD end” value in assay [2] (Table 4, HD 500 mg/kg) is 19.87 ± 1.0 g; in assay [2] (Table 4, LD 75 mg/kg) it was 21.15 ± 1.1 g; in assay [2] (Table 4, MD 250 mg/kg), 19.95 ± 1.6 g. Further, the DAI is 2.33 ± 0.11## in assay [2] (setting [3]); 2.99 ± 0.14# in assay [2] (Table 5, LD 75 mg/kg, model 3.39 ± 0.64); 1.81 ± 0.27## in assay [2] (Table 5, MD 150 mg/kg, model 3.39 ± 0.64). Further, the “macroscopic score of colon tissue” value in assay [2] (setting [4]) is on record as 2.66 ± 0.46##; in assay [2] (Table 5, LD 75 mg/kg, model 5.69 ± 1.12), 4.93 ± 0.61; in assay [2] (Table 5, MD 150 mg/kg, model 5.69 ± 1.12), 2.01 ± 0.16##.
For the molecule `C1=C2c3cc4c(cc3CCN2Cc2cc3c(cc21)OCO3)OCO4` [Compound 2, dihydropseudocoptisine], in the assay with xbp1 upstream promoter, the EC50 came to 7.06 nM. Also, the “disease activity index (DAI) inhibitory rate in UC model” value in assay [2] (300 mg/kg) was 80%. Besides, the “Body weight (g) x ± SD end” value in assay [2] (Table 6, 300 mg/kg) is given as 26.17 ± 1.5 g. In addition, the DAI in assay [2] (setting [5]) is listed as 1.05 ± 0.26##. Also, the “macroscopic score of colon tissue” value in assay [2] (setting [6]) is on record as 2.94 ± 0.21##.
Consider `C=C(C(=O)CC)c1c2c(OC)c(OC)ccc2c(C)c2[n+]1CCc1cc3c(cc1-2)OCO3` [Compound 10], for which the concentration giving a half-maximal response (EC50) in the assay on xbp1 upstream promoter came to 47.3 nM.
